Measured values taken from US9440982B2 (Eolas Therapeutics, Inc., priority 2012, dated 2016).

How the values were obtained:
OX1 = target: T1, OX1 (Homo sapiens, UniProt O43613); test: Orexin receptor cell-based functional assay, [Ca2+]i by FLIPR, CHO-OX1 cells; conditions: CHO-OX1 cells, [Ca2+]i by FLIPR, antagonist dose-range 0.1 nM-10 μM, EC90 of OXA; read-out: OX1
T1 construct: expressed in transfected cells; host or cells: CHO (CHO-OX1, kept under selection antibiotic)
T1 sequence (O43613 1-425): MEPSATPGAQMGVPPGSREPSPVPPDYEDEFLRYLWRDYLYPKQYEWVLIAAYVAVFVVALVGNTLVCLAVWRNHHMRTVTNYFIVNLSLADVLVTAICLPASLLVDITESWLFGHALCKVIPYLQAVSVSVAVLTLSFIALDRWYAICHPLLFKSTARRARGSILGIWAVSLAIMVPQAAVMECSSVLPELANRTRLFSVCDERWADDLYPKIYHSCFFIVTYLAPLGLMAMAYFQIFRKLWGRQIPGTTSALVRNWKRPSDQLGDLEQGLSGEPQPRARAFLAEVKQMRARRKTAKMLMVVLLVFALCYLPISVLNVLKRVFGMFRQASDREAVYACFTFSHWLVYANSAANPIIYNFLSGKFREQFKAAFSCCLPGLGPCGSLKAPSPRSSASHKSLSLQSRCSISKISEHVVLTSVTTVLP
Summary of the method: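 CHO cells expressing human OX1 or OX2 loaded with calcium dye plus 2.5 mM probenecid at 37° C (calcium4, 30 min, or calcium6, 2 h), then exposed to compounds (0.1 nM-10 μM) for 30 min. Intracellular Ca2+ measured on FLIPR; antagonist format.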

CYP3A4 = target: T2, CYP3A4 (Homo sapiens, UniProt P08684); test: Cytochrome P450 inhibition assay (midazolam hydroxylation); type: in vitro ADME; conditions: human, human liver microsomes, probe midazolam (hydroxylation to 1′-hydroxymidazolam), 10 μM test compound, midazolam at approximately its Km
T2 construct: pre-incubated with human liver microsomes and NADPH; from tissue; host or cells: human liver microsomes
Summary of the method: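 Human liver microsomes; CYP3A4 activity as midazolam 1′-hydroxylation with substrate near Km, with or without 10 μM test compound, read as percent inhibition. For time-dependent inhibition, parallel samples were preincubated 30 min with NADPH before substrate, and percent inhibition compared with non-preincubated samples.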

T2 sequence (P08684 whole entry): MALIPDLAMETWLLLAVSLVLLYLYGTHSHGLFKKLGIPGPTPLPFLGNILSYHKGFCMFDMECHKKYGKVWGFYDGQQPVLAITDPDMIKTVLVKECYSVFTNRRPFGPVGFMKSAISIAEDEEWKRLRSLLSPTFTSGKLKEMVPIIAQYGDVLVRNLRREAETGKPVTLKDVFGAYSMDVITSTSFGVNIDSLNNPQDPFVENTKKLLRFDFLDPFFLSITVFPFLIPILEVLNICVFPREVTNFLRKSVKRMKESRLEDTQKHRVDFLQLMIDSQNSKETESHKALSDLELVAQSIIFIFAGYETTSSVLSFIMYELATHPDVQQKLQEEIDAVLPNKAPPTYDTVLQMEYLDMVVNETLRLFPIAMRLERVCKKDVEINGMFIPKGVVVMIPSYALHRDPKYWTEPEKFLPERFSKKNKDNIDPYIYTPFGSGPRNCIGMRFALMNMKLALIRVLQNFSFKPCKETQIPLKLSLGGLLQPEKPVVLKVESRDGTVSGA

Cc1ccc(-n2nccn2)c(C(=O)N2CCC[C@@H](C)[C@H]2CN(C)c2ccc(C(F)(F)F)cn2)n1 [Example A194, ((2S,3R)-3-Methyl-2-((methyl(5-(trifluoromethyl)pyridin-2-yl)amino)methyl)piperidin-1-yl)(6-methyl-3-(2H-1,2,3-triazol-2-yl)pyridin-2-yl)methanone]
IC50 (OX1): 6 nM
inhibition at 10 µM (CYP3A4): 79%

Cc1ccc(-c2cnccc2C)c(C(=O)N2CCC[C@@H](C)[C@H]2CNc2ccc(C(F)(F)F)cn2)c1 [Example A8, ((2S,3R)-3-Methyl-2-(((5-(trifluoromethyl)pyridin-2-yl)amino)methyl)piperidin-1-yl)(5-methyl-2-(4-methylpyridin-3-yl)phenyl)methanone]
IC50 (OX1): 58 nM
inhibition at 10 µM (CYP3A4): 99%

Cc1ccc(-n2nccn2)c(C(=O)N2CCC[C@@H](C)[C@H]2CNc2nc3cc(Cl)ccc3o2)n1 [Example A195, ((2S,3R)-2-(((5-Chlorobenzo[d]oxazol-2-yl)amino)methyl)-3-methylpiperidin-1-yl)(6-methyl-3-(2H-1,2,3-triazol-2-yl)pyridin-2-yl)methanone]
IC50 (OX1): 4 nM
inhibition at 10 µM (CYP3A4): 57%

Cc1ccc(-c2ncccn2)c(C(=O)N2CCC[C@@H](C)[C@H]2CNc2ncc(F)cc2F)c1 [Example A182, ((2S,3R)-2-(((3,5-Difluoropyridin-2-yl)amino)methyl)-3-methylpiperidin-1-yl)(5-methyl-2-(pyrimidin-2-yl)phenyl)methanone]
IC50 (OX1): 140 nM
inhibition at 10 µM (CYP3A4): 65%

Cc1ccc(-n2ccc(C)n2)c(C(=O)N2CCC[C@@H](C)[C@H]2CNc2nc3cc(Cl)ccc3o2)c1 [Example A115, ((2S,3R)-2-(((5-Chlorobenzo[d]oxazol-2-yl)amino)methyl)-3-methylpiperidin-1-yl)(5-methyl-2-(3-methyl-1H-pyrazol-1-yl)phenyl)methanone]
IC50 (OX1): 16 nM
inhibition at 10 µM (CYP3A4): 90%

Cc1ccc(-n2nccn2)c(C(=O)N2CCC[C@@H](C)[C@H]2CNc2nc3ccc(Cl)cc3o2)c1 [Example A14, ((2S,3R)-2-(((6-Chlorobenzo[d]oxazol-2-yl)amino)methyl)-3-methylpiperidin-1-yl)(5-methyl-2-(2H-1,2,3-triazol-2-yl)phenyl)methanone]
IC50 (OX1): 10 nM
inhibition at 10 µM (CYP3A4): 80%

COc1cccc(NC[C@@H]2[C@H](C)CCCN2C(=O)c2cc(C)ccc2-n2nccn2)n1 [Example A80, ((2S,3R)-2-(((6-Methoxypyridin-2-yl)amino)methyl)-3-methylpiperidin-1-yl)(5-methyl-2-(2H-1,2,3-triazol-2-yl)phenyl)methanone]
IC50 (OX1): 1870 nM
inhibition at 10 µM (CYP3A4): 28%

Cc1ccc(-c2ncccn2)c(C(=O)N2CCC[C@@H](C)[C@H]2CNc2ncc(C(F)(F)F)cn2)c1 [Example A212, ((2S,3R)-3-Methyl-2-(((5-(trifluoromethyl)pyrimidin-2-yl)amino)methyl)piperidin-1-yl)(5-methyl-2-(pyrimidin-2-yl)phenyl)methanone]
IC50 (OX1): 5 nM
inhibition at 10 µM (CYP3A4): 49%

Cc1ccc(-n2nccn2)c(C(=O)N2CCC[C@@H](C)[C@H]2CNc2ncc3cc(C)ccc3n2)c1 [Example A220, ((2S,3R)-3-Methyl-2-(((6-methylquinazolin-2-yl)amino)methyl)piperidin-1-yl)(5-methyl-2-(2H-1,2,3-triazol-2-yl)phenyl)methanone]
IC50 (OX1): 11 nM
inhibition at 10 µM (CYP3A4): 68%

C[C@@H]1CCCN(C(=O)c2cc(Cl)ccc2-c2ncccn2)[C@@H]1CNc1ncc(Cl)cn1 [Example A202, (5-Chloro-2-(pyrimidin-2-yl)phenyl)((2S,3R)-2-(((5-chloropyrimidin-2-yl)amino)methyl)-3-methylpiperidin-1-yl)methanone]
IC50 (OX1): 18 nM
inhibition at 10 µM (CYP3A4): 44%

C[C@@H]1CCCN(C(=O)c2ccccc2-c2ncccn2)[C@@H]1CNc1ncc(C(F)(F)F)cn1 [Example A317, ((2S,3R)-3-Methyl-2-(((5-(trifluoromethyl)pyrimidin-2-yl)amino)methyl)piperidin-1-yl)(2-(pyrimidin-2-yl)phenyl)methanone]
IC50 (OX1): 1 nM
inhibition at 10 µM (CYP3A4): 46%

Cc1ccc(-c2ccccn2)c(C(=O)N2CCC[C@@H](C)[C@H]2CNc2ccc(C(F)(F)F)nn2)c1 [Example A150, ((2S,3R)-3-Methyl-2-(((6-(trifluoromethyl)pyridazin-3-yl)amino)methyl)piperidin-1-yl) (5-methyl-2-(pyridin-2-yl)phenyl)methanone]
IC50 (OX1): 130 nM
inhibition at 10 µM (CYP3A4): 74%

C[C@@H]1CCCN(C(=O)c2ccccc2-n2nccn2)[C@@H]1CNc1nc2ccccc2o1 [Example A218, (2-(2H-1,2,3-Triazol-2-yl)phenyl)((2S,3R)-2-((benzo[d]oxazol-2-ylamino)methyl)-3-methylpiperidin-1-yl)methanone]
IC50 (OX1): 130 nM
inhibition at 10 µM (CYP3A4): 75%

C[C@@H]1CCCN(C(=O)c2cc(F)ccc2-c2ncccn2)[C@@H]1CNc1ccc(C(F)(F)F)cn1 [Example A228, (5-Fluoro-2-(pyrimidin-2-yl)phenyl)((2S,3R)-3-methyl-2-(((5-(trifluoromethyl)pyridin-2-yl)amino)methyl)piperidin-1-yl)methanone]
IC50 (OX1): 1 nM
inhibition at 10 µM (CYP3A4): 72%

C[C@@H]1CCCN(C(=O)c2cccc(F)c2-c2ncccn2)[C@@H]1CNc1ncc(Cl)cn1 [Example A231, (3-Fluoro-2-(pyrimidin-2-yl)phenyl)((2S,3R)-3-methyl-2-(((5-chloropyrimidin-2-yl)amino)methyl)piperidin-1-yl)methanone]
IC50 (OX1): 17 nM
inhibition at 10 µM (CYP3A4): 54%

Cc1ccc(-c2cnn(C)c2)c(C(=O)N2CCC[C@@H](C)[C@H]2CNc2cccc(C)n2)c1 [Example A87, ((2S,3R)-3-Methyl-2-(((6-methylpyridin-2-yl)amino)methyl)piperidin-1-yl)(5-methyl-2-(1-methyl-1H-pyrazol-4-yl)phenyl)methanone]
IC50 (OX1): 220 nM
inhibition at 10 µM (CYP3A4): 73%

Cc1ccc(-c2cnn(C)c2)c(C(=O)N2CCC[C@@H](C)[C@H]2CNc2ncccc2C)c1 [Example A100, ((2S,3R)-3-Methyl-2-(((3-methylpyridin-2-yl)amino)methyl)piperidin-1-yl)(5-methyl-2-(1-methyl-1H-pyrazol-4-yl)phenyl)methanone]
IC50 (OX1): 1300 nM
inhibition at 10 µM (CYP3A4): 85%

Cc1ccc(-n2nccn2)c(C(=O)N2CCC[C@@H](C)[C@H]2CNc2ncc(C(F)(F)F)cc2F)c1 [Example A82, ((2S,3R)-2-(((3-Fluoro-5-(trifluoromethyl)pyridin-2-yl)amino)methyl)-3-methylpiperidin-1-yl)(5-methyl-2-(2H-1,2,3-triazol-2-yl)phenyl)methanone]
IC50 (OX1): 8 nM
inhibition at 10 µM (CYP3A4): 68%

Cc1ccc(-c2ccccn2)c(C(=O)N2CCC[C@@H](C)[C@H]2CNc2ccc(Cl)cn2)n1 [Example A169, ((2S,3R)-2-(((5-Chloropyridin-2-yl)amino)methyl)-3-methylpiperidin-1-yl)(6′-methyl-[2,3′-bipyridin]-2′-yl)methanone]
IC50 (OX1): 8 nM
inhibition at 10 µM (CYP3A4): 60%

Cc1ccc(-c2ccccn2)c(C(=O)N2CCC[C@@H](C)[C@H]2CNc2ccc(C#N)cn2)c1 [Example A60, 6-((((2S,3R)-3-Methyl-1-(5-methyl-2-(pyridin-2-yl)benzoyl)piperidin-2-yl)methyl)amino)nicotinonitrile]
IC50 (OX1): 490 nM
inhibition at 10 µM (CYP3A4): 69%

Cc1ccc(-n2ncc(C)n2)c(C(=O)N2CCC[C@@H](C)[C@H]2CNc2ccc(Cl)cn2)c1 [Example A121, ((2S,3R)-2-(((5-Chloropyridin-2-yl)amino)methyl)-3-methylpiperidin-1-yl)(5-methyl-2-(4-methyl-2H-1,2,3-triazol-2-yl)phenyl)methanone]
IC50 (OX1): 5 nM
inhibition at 10 µM (CYP3A4): 84%

Cc1ccc(-c2ccc(F)cn2)c(C(=O)N2CCC[C@@H](C)[C@H]2CNc2ccc(Cl)cn2)c1 [Example A159, ((2S,3R)-2-(((5-Chloropyridin-2-yl)amino)methyl)-3-methylpiperidin-1-yl)(2-(5-fluoropyridin-2-yl)-5-methylphenyl)methanone]
IC50 (OX1): 170 nM
inhibition at 10 µM (CYP3A4): 88%

C[C@@H]1CCCN(C(=O)c2cc(F)ccc2-n2nccn2)[C@@H]1CNc1ccc(Cl)cn1 [Example A209, ((2S,3R)-2-(((5-Chloropyridin-2-yl)amino)methyl)-3-methylpiperidin-1-yl)(5-fluoro-2-(2H-1,2,3-triazol-2-yl)phenyl)methanone]
IC50 (OX1): 45 nM
inhibition at 10 µM (CYP3A4): 69%

Cc1ccc(-n2ncc(C)n2)c(C(=O)N2CCC[C@@H](C)[C@H]2CNc2nnc(C(F)(F)F)s2)c1 [Example A135, ((2S,3R)-3-Methyl-2-(((5-(trifluoromethyl)-1,3,4-thiadiazol-2-yl)amino)methyl)piperidin-1-yl)(5-methyl-2-(4-methyl-2H-1,2,3-triazol-2-yl)phenyl)methanone]
IC50 (OX1): 21 nM
inhibition at 10 µM (CYP3A4): 80%
